Data on 2 compounds can be found in BindingDB's records for doi:10.1021/jm00102a019 (Oregon State University, 1993).

SMILES strings stand for the structures.

The target of the assay is Delta-type opioid receptor (Cavia porcellus). As to the kind of experiment: Tested for inhibitory effect on binding of [3H]DPDPE to opioid receptor delta in guinea pig cerebellum membranes.

By Ki is commonly meant the equilibrium dissociation constant of an inhibitor or competing ligand from its target. A high value points to weaker binding. For the compound `CC[C@H](C)[C@H](NC(=O)[C@H](CCCNC(=N)N)NC(=O)[C@H](CCCNC(=N)N)NC(=O)[C@H](CC(C)C)NC(=O)[C@H](Cc1ccccc1)NC(=O)CNC(=O)CNC(=O)[C@H](Cc1ccc(O)cc1)NCC1CC1)C(=O)N[C@@H](CCCNC(=N)N)C(=O)N1CCC[C@@H]1C(=O)N[C@@H](CCCCN)C(=O)O`, affinity was put at a Ki of 558 nM.
Compound `C=CCN(CC=C)[C@@H](Cc1ccc(O)cc1)C(=O)NCC(=O)NCC(=O)N[C@@H](Cc1ccccc1)C(=O)N[C@@H](CC(C)C)C(=O)N[C@@H](CCCNC(=N)N)C(=O)N[C@@H](CCCNC(=N)N)C(=O)N[C@H](C(=O)N[C@@H](CCCNC(=N)N)C(=O)N1CCC[C@@H]1C(=O)N[C@@H](CCCCN)C(=O)O)[C@@H](C)CC` yielded a Ki of 149 nM.
